Literature values as cited in patent US20130090296A1, “INJECTABLE FORMULATION OF A MACROCYCLIC LACTONE AND LEVAMISOLE” (priority 2010, published 2013).

Details: previously found

## c1ccc([C@H]2CN3CCSC3=N2)cc1 [levamisole]
  pH required for stability: less than 4
